Measured values reported in ChEMBL document CHEMBL1143479, “Carbonic anhydrase inhibitors: inhibition of the tumor-associated isozymes IX and XII with a library of aromatic and heteroaromatic sulfonamides” (Bioorg Med Chem Lett, 2005).

Legend:
Carbonic anhydrase 9 = Carbonic anhydrase 9 (Homo sapiens, UniProt Q16790)
Carbonic anhydrase 2 = Carbonic anhydrase 2 (Homo sapiens, UniProt P00918)
Carbonic anhydrase 1 = Carbonic anhydrase 1 (Homo sapiens, UniProt P00915)
Carbonic anhydrase 12 = Carbonic anhydrase 12 (Homo sapiens, UniProt O43570)
Carbonic anhydrase 12, sequence (O43570 whole entry): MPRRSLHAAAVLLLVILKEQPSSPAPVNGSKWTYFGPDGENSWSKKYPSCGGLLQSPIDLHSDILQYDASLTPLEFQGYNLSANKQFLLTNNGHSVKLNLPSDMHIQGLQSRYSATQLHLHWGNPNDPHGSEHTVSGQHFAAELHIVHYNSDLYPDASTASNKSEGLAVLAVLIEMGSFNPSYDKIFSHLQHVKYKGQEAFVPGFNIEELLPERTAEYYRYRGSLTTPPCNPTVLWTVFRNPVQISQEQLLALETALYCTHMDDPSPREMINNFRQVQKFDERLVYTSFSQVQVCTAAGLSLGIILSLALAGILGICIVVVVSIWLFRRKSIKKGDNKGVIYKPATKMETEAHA

Carbonic anhydrase 1, sequence (P00915 whole entry): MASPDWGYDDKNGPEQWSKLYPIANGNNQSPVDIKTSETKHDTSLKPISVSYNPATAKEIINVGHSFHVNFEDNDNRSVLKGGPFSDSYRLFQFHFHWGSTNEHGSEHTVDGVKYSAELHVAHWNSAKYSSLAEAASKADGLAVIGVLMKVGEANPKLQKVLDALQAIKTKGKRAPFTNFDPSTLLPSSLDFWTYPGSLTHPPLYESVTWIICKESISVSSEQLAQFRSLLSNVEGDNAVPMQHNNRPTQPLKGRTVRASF

Row | Ki (Carbonic anhydrase 9) [µM] | Ki (Carbonic anhydrase 1) [µM] | Ki (Carbonic anhydrase 12) [µM] | Compound | Ki (Carbonic anhydrase 2) [µM]
1 | 0.139 |  |  | CC(C)C(=O)Nc1ccc(S(N)(=O)=O)cc1 | 
2 | 0.083 |  |  | CCCC(=O)Nc1ccc(S(N)(=O)=O)cc1 | 
3 | 0.079 |  |  | CCCCC(=O)Nc1ccc(S(N)(=O)=O)cc1 | 
4 | 0.014 | 1.5 | 0.01 | NS(=O)(=O)c1cccc(NC(=O)Nc2ccccc2)c1 | 
5 | 0.136 |  |  | CC(C)(C)C(=O)Nc1ccc(S(N)(=O)=O)cc1 | 
6 |  |  | 0.049 | CC(=O)Nc1ccc(S(N)(=O)=O)cc1 | 
7 |  | 0.037 | 0.079 | NS(=O)(=O)c1ccc(CCNC(=S)Nc2ccc(S(N)(=O)=O)cc2)cc1 | 0.004
8 | 0.037 |  |  | CC(=O)Nc1ccc(Nc2ccc(S(N)(=O)=O)cc2)cc1 | 

Row | Compound | Ki (Carbonic anhydrase 9) [µM] | Ki (Carbonic anhydrase 1) [µM] | Ki (Carbonic anhydrase 12) [µM] | Ki (Carbonic anhydrase 2) [µM]
9 | NS(=O)(=O)c1ccc(CCNC(=S)Nc2ccccc2)cc1 | 0.021 | 0.05 | 0.024 | 0.053
